Patent US20180273482A1, “COMPOSITIONS AND METHODS FOR INCREASING, OR PREVENTING OR REVERSING LOSS OF, SKIN PIGMENTATION IN A MAMMALIAN SUBJECT” (THE TRUSTEES OF THE UNIVERSITY OF PENNSYLVANIA, priority 2015, published 2018)

Test system: C57BL/6 mice ear skin
Test: Topical G-1 treatment of mouse ear skin
Type: in vivo
Details: 2% G-1 topical, 3 weeks
Experimental: 2×10^5 melanocytes were seeded uniformly on 6-well tissue culture plates. […] For tissue melanin assays, tissue was weighed prior to boiling in 1M NaOH for 20 minutes.
2% (w/v) G-1 was prepared in DMSO. 20 μL of this solution was applied daily to the right ear, with vehicle only applied to the left ear, of 4-week-old C57BL/6 mice. These studies were performed without inclusion/exclusion criteria, randomization, or blinding. Based on a two-fold anticipated effect, this experiment was performed with 3 biological replicates.

CC(=O)c1ccc2c(c1)[C@@H]1C=CC[C@@H]1[C@H](c1cc3c(cc1Br)OCO3)N2 (racemic) [G-1, rel-1-[4-(6-bromo-1,3-benzodioxol-5-yl)-3aR,4S,5,9bS-tetrahydro-3H-cyclopenta[c]quinolin-8-yl]-ethanone]
pigment in treated ears compared to vehicle: increased pigment | melanin content of treated tissue vs controls (right ear, whole ear tissue melanin assay): 1.6 fold
